# Test results from publication PMC11941704 (Current Issues in Molecular Biology, 2025).
# Where “and” joins values, the source holds several entries; their conditions need not be identical. Equal entries are not always repeated. Where two headings read alike, the source gives them in different places.
# Tests used:
# [1] = system: C. perfringens neuraminidase; type: biochemical, Clostridium perfringens; settings: for IC50: read-out: IC50 Value C. perfringen Neuraminidase
# [2] = system: SARS-CoV-2 spike protein–human ACE2 interaction; type: binding, SARS-CoV-2 / human
# SARS-CoV-2 main protease [3] = target: T1, SARS-CoV-2 main protease (Severe acute respiratory syndrome coronavirus 2, UniProt P0DTD1); assay: biochemical; type: biochemical; settings: for IC50: IC50 Value SARS-CoV-2 Main Protease
# SARS-CoV-2 main protease [4] = target: T1, SARS-CoV-2 main protease; settings: read-out: IC50 Value SARS-CoV-2 Main Protease; cited from earlier work
Compound,% Inhibition C. perfringen Neuraminidase [1],"Potency Index*, bacterial neuraminidase, compared to std influenza A [1]","Potency Index, bacterial (C. perfringens) neuraminidase [1]","Potency Index, SARS-CoV-2 spike protein [2]","Ratio, SARS-CoV2 spike protein [2]","Potency Index, SARS-CoV-2 main protease (SARS-CoV-2 main protease [3])",IC50 [1],% Inhibition SARS-CoV-2 Spike Protein–Human ACE2 Interaction [2],inhibition at 100 µg/mL (SARS-CoV-2 main protease [3]) [%],IC50 (SARS-CoV-2 main protease [3]) [µM],IC50 (SARS-CoV-2 main protease [4]) [µM]
"CCCCCc1cc(O)c2c(c1)OC(C)(C)c1ccc(C)cc1-2 [CBN, cannabinol]",34.87 (± 3.08) %,100.00,100,39.18,1.39,100,–,–,–,–,–
"O=c1c(O)c(-c2ccc(O)c(O)c2)oc2cc(O)cc(O)c12 [quercetin, reference compound]",–,–,–,–,–,–,~11 µM and 11 µM,–,–,–,–
"CCCCCc1cc(O)c2c(c1)oc1c(C)ccc(C(C)C)c12 [CBF, cannabifuran]",–,–,–,–,1.01,100,–,99.22 (± 1.36) %,65.3,–,–
"CCCCCc1cc(O)c2c(c1)OC1(C)CCC3C1C2C3(C)C (centres unmarked) [CBL, cannabicyclol]",–,96.12,8.75,54.53,1.55,–,96.1 µM,–,> 80,5.67,–
"C=C(C)C1CCC(C)(O)C2Oc3cc(CCCCC)cc(O)c3C12 (centres unmarked) [CBE, cannabielsoin]",–,–,–,35.75,1.36,100,–,–,80.3,–,–
"CCCCCc1cc(O)c(C/C=C(\C)CCC=C(C)C)c(O)c1 [CBG, cannabigerol]",–,6.92,0.63,2.46,1.02,–,6.9 µM and 6.92 µM,97.60 (± 4.16) %,> 80,5.68,–
"CCCCCc1cc(O)c2c(c1)OC(C)(C)[C@@H]1CCC(C)=C[C@@H]21 [THC, tetrahydrocannabinol, reference compound]",–,20.30,1.85,72.94,1.73,38.64,~20.3 µM and 20.3 µM,–,–,–,16.2
"COc1cc(O)c2c(c1)O[C@H](c1ccccc1)CC2=O [pinostrobin, reference compound]",–,–,–,–,–,–,–,100%,–,–,–
"CCCCCc1cc(O)c2c(c1)OC(C)(CCC=C(C)C)C=C2 (centres unmarked) [CBC, cannabichromene]",–,56.89,5.18,4.99,1.05,100,56.9 µM,95.25 (± 4.54) %,75,–,–
"C=C(C)[C@@H]1CCC(C)=C[C@H]1c1c(O)cc(CCCCC)cc1O [CBD, cannabidiol, reference compound]",–,4.53,0.41,77.62,1.78,4.43,4.5 µM and 4.53 µM,–,–,–,1.86
